{"source": "patent US12043612B2", "about": "“Methods of manufacturing a bifunctional compound, ultrapure forms of the bifunctional compound, and dosage forms comprising the same” (Arvinas Operations, Inc., priority 2020, dated 2024)", "key": {"pKa of Compound A": {"test": "pKa of Compound A", "type": "physicochemical", "method": "(§1) This batch was prepared for use in the 28-day good laboratory practice (GLP) toxicology studies using the same synthetic scheme and processing employed in preparation of active pharmaceutical ingredient (API) to be used in the clinical drug product."}, "[1]": {"test": "pH-Solubility Profile in buffers and simulated intestinal fluids", "type": "physicochemical", "settings": "read-out: pH-Solubility Profile, Concentration", "method": "as §1"}, "MDCK cells": {"test_system": "MDCK cells", "test": "In vitro permeability in MDCK cells", "type": "in vitro ADME"}, "[2]": {"test": "Solvent screen for dissolution of crystalline Compound A", "type": "physicochemical", "method": "A screen was conducted to determine the optimum solvent for use purifying Compound A and for dissolution of crystalline Compound A prior to spray drying."}, "[3]": {"test": "Oral bioavailability and hepatic clearance with colloid-forming, precipitation-resistant solutions", "type": "in vivo"}, "[4]": {"test": "Membrane flux experiment (donor/receiver compartments, SIF bile salts)", "procedure": "A membrane flux experiment was conducted in which a fixed amount of compound was introduced into the donor compartment at various concentrations of the SIF bile salts, and appearance of drug was monitored on the receiver side."}}, "note": "Read-outs that look alike come from different tables or passages of the source."}
{"smiles": "N#Cc1ccc(O[C@H]2CC[C@H](NC(=O)c3ccc(N4CCC(CN5CCN(c6cc7c(cc6F)C(=O)N(C6CCC(=O)NC6=O)C7=O)CC5)CC4)nn3)CC2)cc1Cl", "note": "(some centres unmarked) [Compound A, N-[(1r,4r)-4-(3-chloro-4-cyanophenoxy)cyclohexyl]-6-[4-({4-[2-(2,6-dioxopiperidin-3-yl)-6-fluoro-1,3-dioxo-2,3-dihydro-1H-isoindol-5-yl]piperazin-1-yl}methyl)piperidin-1-yl]pyridazine-3-carboxamide]", "values": [{"measurement": "pKa1", "setting": "pKa of Compound A", "result": "pKa1 = 6.8"}, {"measurement": "pKa2", "setting": "pKa of Compound A", "result": "pKa2 = 2.7"}, {"measurement": "solubility", "setting": "[1]; aqueous buffer, pH 3 200 mM citrate buffer, pH of solution 3.0", "result": 15, "unit": "µg/mL"}, {"measurement": "solubility", "setting": "[1]; aqueous buffer, pH 5 200 mM citrate buffer, pH of solution 5.0", "result": 0.5, "unit": "µg/mL"}, {"measurement": "solubility", "setting": "[1]; aqueous buffer, pH 6.5 200 mM citrate buffer, pH of solution 6.5", "result": 0.3, "unit": "µg/mL"}, {"measurement": "solubility", "setting": "[1]; pH 5, fessif, Fed state simulated intestinal fluid, pH of solution 5.0", "result": 22, "unit": "µg/mL"}, {"measurement": "solubility", "setting": "[1]; pH 6.5, fassif, Fasted state simulated intestinal fluid, pH of solution 6.5", "result": 1, "unit": "µg/mL"}, {"measurement": "solubility", "setting": "[1]; simulated gastric fluid, pH 1.2 HCl (aq), pH of solution 1.2", "result": 397, "unit": "µg/mL"}, {"measurement": "in vitro permeability in MDCK cells", "setting": "MDCK cells", "result": "low"}, {"measurement": "Dissolution", "setting": "[2]; DCM:Acetone, 53:47% wt., Solids 0.82 wt %, RT", "result": "Not dissolved"}, {"measurement": "Dissolution", "setting": "[2]; DCM:Ethanol, 92:8% wt., Solids 2.26 wt %, RT", "result": "Dissolved"}, {"measurement": "Dissolution", "setting": "[2]; DCM:Methanol, 70:30% wt., Solids 3.2 wt %, RT", "result": "Turbid solution"}, {"measurement": "Dissolution", "setting": "[2]; DCM:Methanol, 80:20% wt., Solids 3.4 wt %, RT", "result": "Dissolved"}, {"measurement": "Dissolution", "setting": "[2]; DCM:Methanol, 90:10% wt., Solids 5 wt %, RT", "result": "Dissolved"}, {"measurement": "Dissolution", "setting": "[2]; DCM:Methanol, 90:10% wt., Solids 6.6 wt %, Temperature 30", "result": "Dissolved"}, {"measurement": "Dissolution", "setting": "[2]; DCM:Methanol, 90:10% wt., Solids 8.1 wt %, Temperature 35", "result": "Dissolved"}, {"measurement": "Dissolution", "setting": "[2]; DCM:Methanol, 95:5 wt. %., Solids 4.2 wt %, RT", "result": "Dissolved"}, {"measurement": "Dissolution", "setting": "[2]; DCM, Solids 0.6 wt %, RT", "result": "Not dissolved"}, {"measurement": "Dissolution", "setting": "[2]; Methanol, Solids 2.8 wt %, RT", "result": "Not dissolved"}, {"measurement": "Dissolution", "setting": "[2]; THF, Solids 0.7 wt %, RT", "result": "Not dissolved"}, {"measurement": "oral bioavailability", "setting": "[3]; colloid-forming, precipitation-resistant solutions administered", "result": "modest"}, {"measurement": "hepatic clearance", "setting": "[3]; in vivo", "result": "low"}, {"measurement": "Flux (μg-min^−1-cm^−2)", "setting": "[4]; SIF 0 mg/mL", "result": 0.02, "unit": "μg-min^−1-cm^−2"}, {"measurement": "Flux (μg-min^−1-cm^−2)", "setting": "[4]; SIF 5 mg/mL", "result": 0.09, "unit": "μg-min^−1-cm^−2"}, {"measurement": "Flux (μg-min^−1-cm^−2)", "setting": "[4]; SIF 10 mg/mL", "result": 0.14, "unit": "μg-min^−1-cm^−2"}, {"measurement": "Flux (μg-min^−1-cm^−2)", "setting": "[4]; SIF 20 mg/mL", "result": 0.20, "unit": "μg-min^−1-cm^−2"}]}
